Results: patent publication US11260050B2, “Combination of cotinine plus antioxidant for treatment-resistant depression and correction of astrocytes functional deficit induced by depression and other neuropathological” (UNIVERSIDAD SAN SEBASTIAN, priority 2017, dated 2022)

What was measured:
[1] = system: mice subjected to restraint stress; test: Porsolt test after restraint stress, intranasal post-treatment (Example 1, Experiment 1); assay type: in vivo, C57BL/6 mice; settings: RS mice post-treated with cotinine via IN; p<0.01
Procedure: (§1) Mice were treated immediately after the 21 days of immobilization stress (6 h/day) until euthanasia. Mice (n=5-8/condition) received daily treatments with 1. PBS (phosphate buffer saline, pH 7.4) via intranasal (2×12 μl/nostril), 2. PBS via gavage (50 μl); 3. Cotinine dissolved in PBS via oral (gavage, (0.5 mg/kg; Cot 0.5); 4. Cotinine dissolved in PBS via intranasal (Cot IN, 10 mg/ml, 2×12 μl/nostril).
(§2) To induce chronic stress, the restraint stress paradigm was used as previously described. Mice are immobilized in 50 ml falcon plastic tubes that were attached to mouse cages. The immobilization proceeded during 6 h from 9:00 AM to 3:00 PM in absence of treatments. Tubes have holes in the opposite side of the tube to allow the animal breathing and urination. Mice were almost completely immobilized for 6 h/day for 21 days after which they were permitted freely to move, eat and drink.
(§3) This test is used to measure the antidepressant effects of drugs, and consists in placing each mouse in a transparent cylinder filled with water at room temperature (RT). After a brief period of strong activity, rodents adopt a characteristic immobile posture. The time mice spent immobile is a measure of depressive-like behavior. The immobility time will be recorded during a 15-min and a next day 5-min trial. The time spent by each mouse immobile will be recorded.

[2] = system: mice subjected to fear conditioning; test: Elevated plus maze after fear conditioning (Example 1, Experiment 3); assay type: in vivo, C57BL/6 mice; settings: FC mice, IN post-treatment; Veh 68.14±5.573, N=5
Procedure: (§4) Mice were treated via IN 2 hours after fear conditioning and continuously until euthanasia.
(§5) Mice (n=5-6/condition) received daily treatments with 1. PBS (phosphate buffer saline, pH 7.4) via intranasal (2×12 μl/nostril), 2. Cotinine dissolved in PBS via intranasal (Cot IN, 10 mg/ml, 2×12 μl/nostril); 3. Cotinine+krill oil both dissolved in PBS via intranasal (Cot IN, 10 mg/ml+KO, 48 mg/ml, 2×12 μl/nostril).
Contextual FC was performed as described. The conditioning chamber used is surrounded by a sound-attenuating box with a camera connected to freeze frame software (MED Associates Inc.), also equipped to provide a background white noise (72 dB). The conditioning chamber (33 cm×20 cm×22 cm) contains in one side a speaker and in the opposite slide has a 24V light. The chamber has a 36-bar insulated shock grid floor. Mice were placed in the conditioning chamber for 2 min before the onset of a discrete tone (a sound that will last 30 seconds (sec) at 2,800 Hz and 85 dB). In the last two seconds of this tone, mice received a foot shock of 1 mA and kept in the conditioning chamber for 2 min and then returned to their cages. Between trials, the chamber was sanitized with 70% ethanol and dried. Freezing behavior that is defined as the absence of all movement except the one needed for breathing was assessed using the FreezeView Software (MED Associates Inc.). […]

[3] = system: mice subjected to restraint stress; test: Porsolt test, oral co-treatment during restraint stress (Example 1, Experiment 2); assay type: in vivo, C57BL/6 mice; settings: RS mice, cotinine 5 mg/kg, KO, or mix, vs stressed vehicle
Procedure: Mice (n=5-8/condition) were treated via oral during and after restraint stress continuously until euthanasia.
Mice received daily treatments with
2. Cotinine dissolved in PBS via oral (gavage, (5 mg/kg; Cot 0.5)
3. Krill oil (KO) via oral (5 mg/ml in PBS, 50 μl) continuously from the beginning of the restraint stress until euthanasia.
as §2, §3

[4] = system: mice subjected to restraint stress; test: Open field test after restraint stress (Example 1, Experiment 1); assay type: in vivo, C57BL/6 mice; settings: RS mice, IN cotinine 10 mg/ml, 25 min of testing; p=0.058
Procedure: as §1, §2
OF is used to monitor locomotor activity. […] Several parameters including, total distance traveled, speed, rearing behavior and time spent in the center and peripheral zones (20 cm×20 cm) are measured to assess locomotor activity and behavioral changes induced by stress.

[5] = system: mice subjected to restraint stress; test: Novel object recognition after restraint stress (Example 1, Experiment 1); assay type: in vivo, C57BL/6 mice; settings: RS mice, 14 days of IN cotinine; p<0.05
Procedure: as §1, §2
After a habituation step in the OF arena, each mouse was individually placed in the apparatus containing two identical objects located equidistant to each other (familiarization phase) and left to explore the objects for 5 min. Then, mice were returned to their cages and permitted to rest for 30 min. […] The time exploring the two objects was recorded during 5 min. […]

[6] = system: mice subjected to fear conditioning; test: Novel object recognition after fear conditioning (Example 1, Experiment 3); assay type: in vivo, C57BL/6 mice; settings: FC mice, IN post-treatment
Procedure: as §4, §5
Contextual FC was performed as described. The conditioning chamber used is surrounded by a sound-attenuating box with a camera connected to freeze frame software (MED Associates Inc.), also equipped to provide a background white noise (72 dB). The conditioning chamber (33 cm×20 cm×22 cm) contains in one side a speaker and in the opposite slide has a 24V light. The chamber has a 36-bar insulated shock grid floor. […] Freezing behavior that is defined as the absence of all movement except the one needed for breathing was assessed using the FreezeView Software (MED Associates Inc.).
After a habituation step in the OF arena, each mouse was individually placed in the apparatus containing two identical objects located equidistant to each other (familiarization phase) and left to explore the objects for 5 min. […] The time exploring the two objects was recorded during 5 min. […]

[7] = system: restrained C57BL/6 mice; settings: oral cotinine administered before and continuously to restrained C57BL/6 mice; cited from earlier work
[8] = system: conditioned mice; test: Forced swim test after fear conditioning and extinction (Example 4); assay type: in vivo, Mice C57BL/6; settings: FC mice after extinction; Tukey: cotinine p<0.001, combination p<0.005, sertraline p<0.05
Procedure: Three-month-old mice (n=5-6/condition) were weighed and assigned to treatment groups. Mice were treated with vehicle or drugs, starting two h after fear conditioning and daily after behavioral testing until euthanasia. Mice received daily treatments with 1. PBS (phosphate buffer saline, pH 7.4) via intranasal; 2. Cotinine (10 mg/ml) dissolved in PBS via intranasal (IN Cot, 24 μl); 3. Krill oil dissolved in PBS, via intranasal (48 mg/ml, 24 μl); 4. Cotinine (10 mg/ml) plus krill oil dissolved in PBS, via intranasal (48 mg/ml, 24 μl); 5.
For intranasal delivery, mice were hand-restrained, placed in a supine position, and given two 12 μl drops of cotinine solutions, or PBS, into both nares consecutively. Mice were given an extra 12 μl treatment drop if the subject forcibly ejected or sneezed out the solution. Mice were held supine for 5-10 seconds after delivery to ensure that all fluid was inhaled.

Structure (SMILES): CN1C(=O)CC[C@H]1c1cccnc1 [Cotinine, (5S)-1-methyl-5-(3-pyridyl) pyrrolidin-2-one]
- depressive-like behavior (freezing/immobility) in the Porsolt test [1]: significant decrease in depressive-like behavior
- time spent in the open arms (EPM) [2]: increase in the time spent in the open arms but the difference did not reached significance
- depressive-like behavior (freezing behavior) in the Porsolt test [3]: non-significant decrease in depressive-like behavior
- distance traveled in the open field test [4]: 44±18 m
- number of entries into the new object area (NOR) [5]: increased the number of entries into the new object area to control values
- number of entries to the new object area (NOR) ([6]; Cotinine p<0.05, Cotinine+KO p<0.01): higher number of entries to the new object area than PBS-treated FC mice
- time exploring the new object (NOR) ([6]; both p<0.05): spent more time than PBS-treated FC mice
- depressive-like behavior induced by stress [7]: substantively decreased depressive-like behavior induced by stress
- depressive-like behavior (immobility) in the forced swim test [8]: significantly decreased depressive-like behavior
